Measured values: patent US12570988B2, “Aptamers that bind thiamine analogs and derivatives” (MeiraGTx Gene Regulation Limited, priority 2020, dated 2026)

Key:
[1] = tested on: riboswitch TPPm (E. coli thiM TPP aptamer); assay: Luciferase reporter with TPPm riboswitch in HEK 293 cells; format: cell-based, human; conditions: FIG. 1
Description: (§1) Riboswitch constructs: Aptamers were synthesized by Integrated DNA Technologies, Inc. and Golden Gate cloning strategy (New England Biolabs, NEB) was used to clone the synthesized aptamer sequences into intron-exon-intron cassette to replace the guanine aptamer in the G17 riboswitch cassette (see SEQ ID NO: 15 recited in WO 2016/126747, which is incorporated herein in its entirety) with a TPP aptamer from the Alishewanella tabrizica thiC gene (Microbiol Res. 2017 January; 195:71-80) or a TPP aptamer from the Escherichia coli thiM gene (Structure. 2006 September; 14(9):1459-68), generating riboswitch TPPz and TPPm, respectively.
(§2) Transfection: 3.5×10^4 human embryonic kidney (HEK) 293 cells were plated in a 96-well flat bottom plate the day before transfection. Plasmid DNA (500 ng) was added to a tube or a 96-well U-bottom plate. Separately, TransIT-293 reagent (Mirus; 1.4 μL) was added to 50 μL Optimem I media (Life Technologies) and allowed to sit for 5 minutes at room temperature (RT). Then, 50 μL of this diluted transfection reagent was added to the DNA, mixed, and incubated at RT for 20 min. Finally, 7 μL of this solution was added to a well of cells in the 96-well plate. Four hours after transfection, medium containing transfection solution was replaced by medium containing either TPP, fursultiamine, prosultiamine, bisbentiamine, beclotiamine hydrochloride, or sulbutiamine as aptamer inducers.
(§3) Firefly luciferase assay of cultured cells: Twenty-four hours after media change, plates were removed from the incubator, and equilibrated to RT for several minutes on a lab bench, then aspirated. Glo-lysis buffer (Promega, 100 μL, RT) was added, and the plates allowed to remain at RT for at least 5 minutes. Then, the well contents were mixed by 50 μL trituration, and 20 μL of each sample was mixed with 20 μL of bright-glo reagent (Promega) that had been diluted to 10% in glo-lysis buffer. 96 wells were spaced on an opaque white 384-well plate. Following a 5 min incubation at RT, luminescence was measured using a Tecan machine with 500 ms read time. The luciferase activity was expressed as mean arbitrary light units (ALU)±S.D., and fold induction was calculated as the quotient of the luciferase activity obtained from cells with TPP or analog treatment divided by the luciferase activity obtained from cells without TPP or analog treatment.

riboswitch 15D10 [2] = assay: Luciferase reporter with 15D10 riboswitch (Luci-15D10) in AML12 cells; format: cell-based, mouse
riboswitch 15D10 [3] = assay: Luciferase reporter with 15D10 riboswitch (Luci-15D10) in HEK 293 cells; format: cell-based, human; conditions: Homo sapiens, HEK293, 24 h, read-out: Fold increase in riboswitch 15D10-regulated luciferase expression, HEK
How it was run: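 Cells transfected with riboswitch-luciferase plasmid; 4 h later medium replaced with TPP or thiamine analogs (fursultiamine, prosultiamine, bisbentiamine, beclotiamine, sulbutiamine) as inducers.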

[4] = tested on: riboswitch comprising aptamer 15A5; assay: Luciferase reporter with 15A5 riboswitch in AML12 cells; format: cell-based, mouse; conditions: FIG. 6B
[5] = tested on: riboswitch comprising aptamer 6B4
Description: (§4) Riboswitch constructs: Alternative splicing riboswitches containing aptamers 3H4 or 15D10, respectively, were inserted at position 308 into the mouse erythropoietin cDNA sequence in construct Con8-Epo (SEQ ID NO:85), resulting in constructs Epo-3H4 (SEQ ID NO:86) and Epo-15D10 (SEQ ID NO:87). Expression of the erythropoietin gene was driven by a cytomegalovirus (CMV) promoter. The riboswitch cassette containing aptamer 6B4 was inserted at position 276 into the cDNA sequence encoding enhanced green fluorescent protein (EGFP) in vector pEGFP-C1 to generate the EGFP-6B4 construct (SEQ ID NO:88). The intron-exon-intron cassette without aptamer sequence was inserted into Con8-Epo to create construct Epo-Con1 (SEQ ID NO:89), serving as a control for constitutive target gene expression.

[6] = tested on: riboswitch TPPz (A. tabrizica thiC TPP aptamer); assay: Luciferase reporter with TPPz riboswitch in HEK 293 cells; format: cell-based, human; conditions: FIG. 1
Description: as §1, §2, §3

14G4 riboswitch = conditions: HEK 293 cells; dose dependent; FIG. 2
Description: Riboswitch construction: TPP aptamer homologous sequences were obtained from Rfam 12.0 (https://rfam.xfam.org/) and synthesized (Twister Biotech).
To identify aptamers with increased gene regulation activity in response to thiamine analogs as compared to TPPz and TPPm, a putative TPP aptamer with homologous sequence was obtained from Rfam 12.0 (RNA family database RF00059, http://rfam.xfam.org/family/RF00059).

[7] = tested on: riboswitch comprising aptamer 15D10; conditions: 12.5 μM, AML12 cells
Description: as §4
(§5) Enzyme-linked immunosorbent assay (ELISA) for mouse erythropoietin: AML12 cells were transfected as described in Example 1 with TransIT-X2 transfection reagent (Mirus Bio). Four hours after transfection, AML12 cells were treated with or without fursultiamine at the indicated doses. The supernatants from the transfected cells were collected 24 hours after fursultiamine treatment and were subjected to ELISA for the detection of mEpo in the supernatant following the manufacturer's instruction (R&D).

[8] = tested on: riboswitch comprising aptamer 3H4; conditions: 12.5 μM; AML12 cells; versus absence of fursultiamine
Description: as §4, §5

## CC(=C(CCO)SSCC1CCCO1)N(C=O)Cc1cnc(C)nc1N (stereo in doubt) [fursultiamine]
[1]
  effect on luciferase expression, riboswitch TPPm: induce luciferase expression
Riboswitch 15D10 [2]; AML12 cells, FIG. 6B
  luciferase regulation in response to ligand, riboswitch 15D10: robustly regulate luciferase expression
Riboswitch 15D10 [2]; Mus musculus, AML12, 24 h, read-out: Fold increase in riboswitch 15D10-regulated luciferase expression, AML
  fold induction at 50 µM: 315
Riboswitch 15D10 [3]
  fold induction at 50 µM: 446
[4]
  luciferase regulation in response to ligand, riboswitch 15A5: robustly regulate luciferase expression
[5]
  increase in EGFP expression: 14 fold
[6]
  effect on luciferase expression, riboswitch TPPz: induce luciferase expression
14G4 riboswitch
  increase in luciferase expression, 14G4 riboswitch: 100 fold
[7]
  level of mEpo from mEpo-15D10 relative to constitutive mEpo-Con1 construct: approximately 61.3%
[7]; versus absence of fursultiamine
  induction of mEpo expression, Epo-15D10: about 40 fold
[8]
  induction of mEpo expression, Epo-3H4: ~9 fold
